molecular target: T1, Metabotropic glutamate receptor 3 (Homo sapiens, UniProt Q14832); assay: Evaluation of the functional effect on cAMP responses in RGT cells expressing human mGlu3 receptor; type: cell-based
T1 sequence (Q14832 whole entry): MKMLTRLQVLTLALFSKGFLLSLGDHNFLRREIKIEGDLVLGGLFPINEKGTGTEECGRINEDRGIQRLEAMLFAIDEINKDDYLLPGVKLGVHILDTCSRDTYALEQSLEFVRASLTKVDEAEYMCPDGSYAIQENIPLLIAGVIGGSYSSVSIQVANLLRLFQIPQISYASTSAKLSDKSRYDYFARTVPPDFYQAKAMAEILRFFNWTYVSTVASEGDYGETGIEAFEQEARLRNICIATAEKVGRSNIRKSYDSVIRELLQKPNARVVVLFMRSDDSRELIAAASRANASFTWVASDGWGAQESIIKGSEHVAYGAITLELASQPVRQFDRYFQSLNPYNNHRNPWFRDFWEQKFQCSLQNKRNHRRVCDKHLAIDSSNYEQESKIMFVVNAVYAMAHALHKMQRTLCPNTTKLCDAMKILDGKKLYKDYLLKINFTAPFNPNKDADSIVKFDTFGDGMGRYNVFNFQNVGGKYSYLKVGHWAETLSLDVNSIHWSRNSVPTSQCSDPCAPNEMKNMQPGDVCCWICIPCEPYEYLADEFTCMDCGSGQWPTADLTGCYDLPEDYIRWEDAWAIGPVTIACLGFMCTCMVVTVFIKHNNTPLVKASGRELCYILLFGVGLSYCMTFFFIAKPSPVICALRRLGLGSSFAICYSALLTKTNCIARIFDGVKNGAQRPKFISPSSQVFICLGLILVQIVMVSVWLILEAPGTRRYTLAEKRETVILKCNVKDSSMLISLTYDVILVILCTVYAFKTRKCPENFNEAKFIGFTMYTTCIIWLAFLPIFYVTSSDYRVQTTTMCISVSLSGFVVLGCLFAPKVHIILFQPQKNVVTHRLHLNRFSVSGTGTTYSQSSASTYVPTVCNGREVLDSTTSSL

| EC50 | IC50 | SMILES |
| --- | --- | --- |
| > 100000 nM | – | C[C@H]1C[C@](N)(C(=O)O)[C@H]2[C@H](C(=O)O)[C@H]21 |
| 34 nM | – | C[C@H]1C[C@@](N)(C(=O)O)[C@@H]2[C@@H](C(=O)O)[C@@H]21 |
| – | 2940 nM | C[C@@H]1C[C@@](N)(C(=O)O)[C@@H]2[C@@H](C(=O)O)[C@@H]21 (stereo in doubt; 13) |
| – | 1050 nM | C[C@@H]1C[C@@](N)(C(=O)O)[C@@H]2[C@@H](C(=O)O)[C@@H]21 (stereo in doubt; (+)-13) |

molecular target: T1, Metabotropic glutamate receptor 3; assay: Displacement of [3H]-341495 binding to membranes expressing recombinant human Metabotropic glutamate receptor 3

| Ki | SMILES |
| --- | --- |
| 146 nM | C[C@@H]1C[C@H]2[C@H](C(=O)O)[C@H]2[C@]1(N)C(=O)O |
| > 100000 nM | C[C@H]1C[C@](N)(C(=O)O)[C@H]2[C@H](C(=O)O)[C@H]21 |
| 511 nM | C[C@H]1C[C@@](N)(C(=O)O)[C@@H]2[C@@H](C(=O)O)[C@@H]21 |
| 570 nM | C[C@@H]1C[C@@](N)(C(=O)O)[C@@H]2[C@@H](C(=O)O)[C@@H]21 (stereo in doubt; 13) |
| 302 nM | C[C@@H]1C[C@@](N)(C(=O)O)[C@@H]2[C@@H](C(=O)O)[C@@H]21 (stereo in doubt; (+)-13) |

molecular target: T2, Metabotropic glutamate receptor 2 (Homo sapiens, UniProt Q14416); assay: Displacement of [3H]-341495 binding to membranes expressing recombinant human Metabotropic glutamate receptor 2
T2 sequence (Q14416 whole entry): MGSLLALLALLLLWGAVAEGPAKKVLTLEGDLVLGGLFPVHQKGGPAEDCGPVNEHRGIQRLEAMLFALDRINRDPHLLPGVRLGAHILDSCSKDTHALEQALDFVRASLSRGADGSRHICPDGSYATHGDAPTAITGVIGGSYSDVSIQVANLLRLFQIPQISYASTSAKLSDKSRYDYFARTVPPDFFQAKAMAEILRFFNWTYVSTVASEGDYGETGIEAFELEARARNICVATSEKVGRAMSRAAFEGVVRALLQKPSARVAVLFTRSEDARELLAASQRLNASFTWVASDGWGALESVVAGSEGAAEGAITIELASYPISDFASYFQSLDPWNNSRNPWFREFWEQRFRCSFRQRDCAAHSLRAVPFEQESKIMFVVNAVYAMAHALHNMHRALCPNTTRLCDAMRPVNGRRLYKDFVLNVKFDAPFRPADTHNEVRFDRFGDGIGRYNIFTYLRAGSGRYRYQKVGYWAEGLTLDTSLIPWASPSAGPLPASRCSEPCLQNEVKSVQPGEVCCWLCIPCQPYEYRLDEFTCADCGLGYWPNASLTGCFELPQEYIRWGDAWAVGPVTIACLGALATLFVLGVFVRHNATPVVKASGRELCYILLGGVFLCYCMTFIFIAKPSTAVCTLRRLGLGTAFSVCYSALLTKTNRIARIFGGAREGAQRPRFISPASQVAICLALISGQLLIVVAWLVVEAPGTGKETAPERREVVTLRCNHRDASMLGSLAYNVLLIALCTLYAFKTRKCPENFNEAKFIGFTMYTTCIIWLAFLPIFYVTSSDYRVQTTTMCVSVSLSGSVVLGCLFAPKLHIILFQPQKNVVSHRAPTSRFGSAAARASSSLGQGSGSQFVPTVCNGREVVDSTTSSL

| Ki | SMILES |
| --- | --- |
| > 100000 nM | C[C@H]1C[C@](N)(C(=O)O)[C@H]2[C@H](C(=O)O)[C@H]21 |
| 74 nM | N[C@@]1(C(=O)O)CC[C@H]2[C@H](C(=O)O)[C@H]21 |
| 409 nM | C[C@@H]1C[C@@](N)(C(=O)O)[C@@H]2[C@@H](C(=O)O)[C@@H]21 (stereo in doubt; 13) |
| 165 nM | C[C@@H]1C[C@@](N)(C(=O)O)[C@@H]2[C@@H](C(=O)O)[C@@H]21 (stereo in doubt; (+)-13) |

molecular target: T2, Metabotropic glutamate receptor 2; assay: Evaluation of the functional effect on cAMP responses in RGT cells expressing human mGlu2 receptor; type: cell-based

| IC50 | EC50 | SMILES |
| --- | --- | --- |
| 1750 nM | – | C[C@@H]1C[C@H]2[C@H](C(=O)O)[C@H]2[C@]1(N)C(=O)O |
| – | > 100000 nM | C[C@H]1C[C@](N)(C(=O)O)[C@H]2[C@H](C(=O)O)[C@H]21 |
| – | 45 nM | C[C@H]1C[C@@](N)(C(=O)O)[C@@H]2[C@@H](C(=O)O)[C@@H]21 |
| – | 10 nM | N[C@@]1(C(=O)O)CC[C@H]2[C@H](C(=O)O)[C@H]21 |
| – | 397 nM | C[C@@H]1C[C@@](N)(C(=O)O)[C@@H]2[C@@H](C(=O)O)[C@@H]21 (stereo in doubt; 13) |
| – | 161 nM | C[C@@H]1C[C@@](N)(C(=O)O)[C@@H]2[C@@H](C(=O)O)[C@@H]21 (stereo in doubt; (+)-13) |
